Laboratory results: publication PMC10101059, “Rational Design of Stapled Antimicrobial Peptides to Enhance Stability and In Vivo Potency against Polymicrobial Sepsis” (Microbiology Spectrum, 2023)
≈ marks a conversion by molar mass, not a printed value. Like-named read-outs stand apart in the source and are kept apart here. Bridge positions count the residues as written; N and C are the ends. Square brackets hold non-standard residues; d marks the D form. Peptide text beside a SMILES is read from it. R5 = C=CCCC[C@@](C)(N)C(=O)O

Key:
[1] = system: NDM-1 Klebsiella pneumoniae; test: microbe, parasite or virus in culture; format: cell-based; conditions: NDM-1
Procedure: (§1) The antimicrobial assay was performed according to a modified National Committee for Clinical Laboratory Standards (NCCLS) protocol ([41], [42]). Briefly, 5 × 10^5 CFU/mL bacterial cells were treated with various peptide concentrations and incubated at 37 ± 2°C for 16 to 20 h. The lowest concentration with clear wells was recorded as the MIC for each test molecule. The clear wells were further plated in Mueller-Hinton agar (MHA) plates, followed by incubation overnight at 37 ± 2°C. After plating, the lowest concentration at which no growth was observed was recorded as the MBC. For the serum sensitivity assay, the antimicrobial activity of the peptides was tested in medium containing 50% human serum ([43], [44]).

[2] = system: Enterobacter aerogenes; test: microbe, parasite or virus in culture; format: cell-based
Procedure: as §1

[3] = system: Pseudomonas aeruginosa; test: microbe, parasite or virus in culture; format: cell-based
Procedure: as §1

[4] = system: Escherichia coli; test: microbe, parasite or virus in culture; format: cell-based
Procedure: as §1

[5] = system: MDR A. baumannii 1033; test: microbe, parasite or virus in culture; format: cell-based, Acinetobacter baumannii; conditions: MDR 1033
Procedure: as §1

[6] = system: MDR A. baumannii 2982; test: microbe, parasite or virus in culture; format: cell-based, Acinetobacter baumannii; conditions: MDR 2982
Procedure: as §1

[7] = system: MDR A. baumannii 1019; test: microbe, parasite or virus in culture; format: cell-based, Acinetobacter baumannii; conditions: MDR 1019
Procedure: as §1

[8] = system: MDR A. baumannii 921; test: microbe, parasite or virus in culture; format: cell-based, Acinetobacter baumannii; conditions: MDR 921
Procedure: as §1

[9] = system: MDR A. baumannii 2962; test: microbe, parasite or virus in culture; format: cell-based, Acinetobacter baumannii; conditions: MDR 2962
Procedure: as §1

[10] = system: MDR A. baumannii 14B0091; test: microbe, parasite or virus in culture; format: cell-based, Acinetobacter baumannii; conditions: MDR 14B0091
Procedure: as §1

[11] = system: MDR A. baumannii 3618; test: microbe, parasite or virus in culture; format: cell-based, Acinetobacter baumannii; conditions: MDR 3618
Procedure: as §1

[12] = system: MDR A. baumannii 2997; test: microbe, parasite or virus in culture; format: cell-based, Acinetobacter baumannii; conditions: MDR 2997
Procedure: as §1

[13] = system: MDR A. baumannii 2998; test: microbe, parasite or virus in culture; format: cell-based, Acinetobacter baumannii; conditions: MDR 2998
Procedure: as §1

[14] = system: MDR A. baumannii 2088; test: microbe, parasite or virus in culture; format: cell-based, Acinetobacter baumannii; conditions: MDR 2088
Procedure: as §1

[15] = system: MDR A. baumannii 1607; test: microbe, parasite or virus in culture; format: cell-based, Acinetobacter baumannii; conditions: MDR 1607
Procedure: as §1

[16] = system: MDR A. baumannii 1702; test: microbe, parasite or virus in culture; format: cell-based, Acinetobacter baumannii; conditions: MDR 1702
Procedure: as §1

[17] = system: Acinetobacter baumannii; test: microbe, parasite or virus in culture; format: cell-based
Procedure: as §1, with “[44]). The antimicrobial assay was performed in the presence of physiological ions and glucose. The test media were supplemented with MgCl2 (1 mM), CaCl2 (2 mM), NaCl (150 mM), KCl (4.5 mM), NH4Cl (6 μM) ([45], [46]), or glucose (0.2%) ([47]), followed by routine antimicrobial assay as described previously. For the pH sensitivity assay, the antimicrobial assay was performed in media adjusted to pH values ranging from 4 to 12. To estimate the effects of temperature on antimicrobial activity, the peptide was incubated for 1 h at temperatures ranging from 40 to 100°C ([48]), followed by the antimicrobial assay as described above.” for “[44]).”

[18] = system: Staphylococcus aureus; format: cell-based
Procedure: as §1

[19] = system: human red blood cells; format: cell-based
Procedure: The hemolytic assay was performed after approval from the institutional ethics committee (Academia Sinica Institutional Review Board [IRB]; ID no. AS-IRB02-111075). Blood was collected from healthy humans, and 50 μL of a 2% blood cell suspension in normal saline was treated with an equal volume of peptide at different concentrations. The mixture was then incubated at 37 ± 2°C for 1 h. Next, the cell suspension was centrifuged at 1,000 × g for 10 min. Percent hemolysis was estimated by the absorbance of treated and control supernatant samples at 540 nm ([23], [44]).

`CC[C@H](C)[C@H](NC(=O)[C@H](C)NC(=O)[C@H](CCCCN)NC(=O)CNC(=O)[C@H](C)NC(=O)[C@H](CO)NC(=O)[C@H](Cc1ccccc1)NC(=O)[C@H](CC(C)C)NC(=O)CNC(=O)CNC(=O)[C@@H](NC(=O)[C@@H](NC(=O)[C@H](Cc1c[nH]cn1)NC(=O)[C@H](Cc1c[nH]cn1)NC(=O)[C@@H](NC(=O)[C@@H](N)Cc1ccccc1)[C@@H](C)CC)[C@@H](C)CC)[C@@H](C)CC)C(=O)N[C@@H](Cc1c[nH]cn1)C(=O)N[C@@H](CCCNC(=N)N)C(=O)N[C@@H](CC(C)C)C(=O)N[C@H](C(=O)N[C@@H](CCCNC(=N)N)C(=O)N[C@@H](CCCNC(=N)N)C(=O)N[C@@H](CCCNC(=N)N)C(=O)N[C@@H](CCCNC(=N)N)C(=O)N[C@@H](CCCNC(=N)N)C(=O)O)[C@@H](C)CC` [TP4, tilapia piscidin 4] (H-FIHHIIGGLFSAGKAIHRLIRRRRR-OH) gave an MBC [1] of 6.25 µM (≈ 18.6 µg/mL), an MIC [1] of 6.25 µM (≈ 18.6 µg/mL) and an MBC [2] of 0.78 µM (≈ 2.33 µg/mL). For the same molecule, the MIC [2] was 0.78 µM (≈ 2.33 µg/mL), the MBC ([3]; read-out: MBC) was 12.5 µM (≈ 37.3 µg/mL) and the MIC ([3]; read-out: MIC) was 12.5 µM (≈ 37.3 µg/mL). For the same molecule, the MBC [4] was 3.13 µM (≈ 9.33 µg/mL), the MIC [4] was 3.13 µM (≈ 9.33 µg/mL) and the MBC ([5]; read-out: MBC) was 6.25 µM (≈ 18.6 µg/mL). For the same molecule, the MIC ([5]; read-out: MIC) was <1.56 µM, the MBC [6] was 3.13 µM (≈ 9.33 µg/mL) and the MIC [6] was 3.13 µM (≈ 9.33 µg/mL). For the same molecule, the MBC [7] was <1.56 µM, the MIC [7] was <1.56 µM and the MBC [8] was <1.56 µM. The MIC [8] was <1.56 µM, the MBC [9] was <1.56 µM and the MIC [9] was <1.56 µM. For the same molecule, the MBC [10] was <1.56 µM, the MIC [10] was <1.56 µM and the MBC [11] was 6.25 µM (≈ 18.6 µg/mL). For the same molecule, the MIC [11] was 3.13 µM (≈ 9.33 µg/mL), the MBC ([12]; read-out: MBC) was <1.56 µM and the MIC ([12]; read-out: MIC) was <1.56 µM. The MIC [13] was <1.56 µM, the MBC ([13]; read-out: MBC) was <1.56 µM and the MBC ([14]; read-out: MBC) was <1.56 µM. For the same molecule, the MIC ([14]; read-out: MIC) was <1.56 µM, the MIC [15] was <1.56 µM and the MBC ([15]; read-out: MBC) was <1.56 µM. The MBC ([16]; read-out: MBC) was <1.56 µM, the MIC ([16]; read-out: MIC) was <1.56 µM and the MBC ([17]; pH 6) was 3.13−6.25 μM. For the same molecule, the MIC ([17]; pH 6) was 3.13−6.25 μM, the MBC ([17]; pH 7.4, read-out: MBC) was 3.13 µM (≈ 9.33 µg/mL) and the MIC ([17]; pH 7.4, read-out: MIC) was 3.13 µM (≈ 9.33 µg/mL). The MBC ([17]; pH 8) was 1.56−3.13 μM, the MIC ([17]; pH 8) was 1.56−3.13 μM and the MBC ([17]; pH 10, read-out: MBC) was 0.78 µM (≈ 2.33 µg/mL). The MIC ([17]; pH 10, read-out: MIC) was 0.78 µM (≈ 2.33 µg/mL), the MBC [18] was 1.56 µM (≈ 4.65 µg/mL) and the MIC [18] was 1.56 µM (≈ 4.65 µg/mL).

With `CC[C@H](C)[C@H](NC(=O)[C@@H](NC(=O)[C@@H](NC(=O)[C@@H](N)Cc1ccccc1)[C@@H](C)CC)[C@@H](C)CC)C(=O)N[C@@H](CCCCN)C(=O)N[C@@H](CCCCN)C(=O)N[C@@H](CO)C(=O)NCC(=O)NCC(=O)N[C@@H](CC(C)C)C(=O)N[C@@H](Cc1ccccc1)C(=O)N[C@@H](CCCCN)C(=O)N[C@@H](CCCCN)C(=O)N[C@@H](CCCCN)C(=O)N[C@@H](C)C(=O)NCC(=O)N[C@@H](C)C(=O)N[C@]1(C)CCCC=CCCC[C@](C)(C(=O)N[C@H](C(=O)N[C@@H](CCCCN)C(=O)N[C@@H](CCCCN)C(=O)O)[C@@H](C)CC)NC(=O)[C@H](CCCCN)NC(=O)[C@H](CCCCN)NC(=O)[C@H](CCCCN)NC1=O` [TP4-1] (H-FIIIKKSGGLFKKKAGA[R5]KKK[R5]IKK-OH; staple 18-22; N-terminus and C-terminus assumed) the MBC ([17]; read-out: MBC) was >25 µM, the MIC ([17]; read-out: MIC) was >25 µM and the 15% hemolysis concn [19] was >100 µM. The MBC [18] was >25 µM and the MIC [18] was >25 µM.
